{"source": "patent US6395308B1", "about": "“Purified extract from Harpagophytum procumbens and/or Harpagophytum zeyheri dence” (Finzekberg GmbH & Co. KG, priority 1996, dated 2002)", "key": {"[1]": {"assay": "stability in artificial gastric juice", "type": "in vitro ADME", "conditions": "both in pure form and in diluted form"}, "[2]": {"assay": "stability in artificial intestinal juice", "type": "in vitro ADME", "conditions": "both in pure form and in diluted form"}}}
{"compound": "C[C@]1(OC(=O)/C=C/c2ccccc2)C[C@@H](O)[C@]2(O)C=CO[C@@H](O[C@@H]3O[C@H](CO)[C@@H](O)[C@H](O)[C@H]3O)[C@@H]21", "note": "[harpagoside]", "values": [{"measurement": "stability in artificial gastric juice", "setting": "[1]", "value": "stable for at least two hours"}, {"measurement": "stability in artificial intestinal juice", "setting": "[2]", "value": "stable for at least two hours"}]}
